Bridge positions count the residues as written; N and C are the ends. Square brackets hold non-standard residues; d marks the D form. Peptide text beside a SMILES is read from it. * marks the point of attachment. Bip = N[C@@H](Cc1ccc(-c2ccccc2)cc1)C(=O)O; Phe(3-Me) = Cc1cccc(C[C@H](N)C(=O)O)c1; 3Pal = N[C@@H](Cc1cccnc1)C(=O)O; 4Pal = N[C@@H](Cc1ccncc1)C(=O)O; Cha = N[C@@H](CC1CCCCC1)C(=O)O; Carboxymethyl = O=C(O)C*; Orn = NCCC[C@H](N)C(=O)O; Aun = NCCCCCCCCCCC(=O)O; Dab = NCC[C@H](N)C(=O)O; Dap = NC[C@H](N)C(=O)O; AEEA = NCCOCCOCC(=O)O
These molecules were tested against T1, PD-1/PD-L1 interaction (PE-labeled human PD-L1-Ig binding to Jurkat cell line over-expressing human PD-1) (Homo sapiens, UniProt Q15116) (assay: Jurkat-PD-1 Cell Binding High-Content Screening Assay (CBA)). Settings: Jurkat cell line over-expressing human PD-1; PE-labeled PD-L1-Ig 20 nM final; read-out: Jurkat hPD1-PDL1 IC50.
T1 construct: expressed in transfected cells; host or cells: Jurkat
Format: cell-based
Procedure, shortened: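 Jurkat cells stably over-expressing human PD-1 were seeded in DMEM with 10% fetal calf serum and pre-incubated with compound for 2 h at 37° C. PE-labeled human PD-L1-Ig was then added at 20 nM final for 1 hour, after which cells were fixed with paraformaldehyde, Hoechst-stained and imaged by high-content microscopy.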

T1 sequence (Q15116 25-288): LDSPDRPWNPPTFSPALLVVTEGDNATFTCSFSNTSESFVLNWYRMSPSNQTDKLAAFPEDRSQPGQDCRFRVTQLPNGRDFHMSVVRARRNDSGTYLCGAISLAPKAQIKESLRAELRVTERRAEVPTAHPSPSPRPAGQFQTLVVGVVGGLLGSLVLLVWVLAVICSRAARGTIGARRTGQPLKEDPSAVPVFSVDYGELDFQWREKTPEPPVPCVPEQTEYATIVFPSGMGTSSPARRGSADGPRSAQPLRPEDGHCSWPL

| Compound | IC50 |
| --- | --- |
| Cc1cccc(C[C@@H]2NC(=O)[C@H](CC(=O)O)NC(=O)[C@H](Cc3ccc(OCC(=O)O)cc3)NC(=O)[C@H](CN)NC(=O)CSC[C@@H](C(=O)NCCOCCOCC(=O)NCCCCCCCCCCC(=O)O)NC(=O)[C@H](CCCN)NC(=O)[C@H](C(C)C)NC(=O)[C@H](CC3CCCCC3)NC(=O)[C@H](CCN)NC(=O)[C@@H](CC(C)C)NC(=O)[C@H](CCCN)NC(=O)[C@H](Cc3ccc(O)cc3)NC(=O)[C@H](Cc3ccc(-c4ccccc4)cc3)NC(=O)[C@H](C(C)C)NC2=O)c1 [Compound 2692] ({CH2CO}-[Dap]Y(Carboxymethyl)D[Phe(3-Me)]V[Bip]Y[Orn][dL][Dab][Cha]V[Orn]C[AEEA][Aun]-OH; thioether N-14) | 6.3 nM |
| Cc1cccc(C[C@@H]2NC(=O)[C@H](CC(=O)O)NC(=O)[C@H](Cc3ccc(OCC(=O)O)cc3)NC(=O)[C@H](CN)NC(=O)CSC[C@@H](C(=O)NCCCCCCCCCCC(=O)O)NC(=O)[C@H](CCCN)NC(=O)[C@H](C(C)C)NC(=O)[C@H](CC3CCCCC3)NC(=O)[C@H](CCN)NC(=O)[C@@H](CC(C)C)NC(=O)[C@H](CCCN)NC(=O)[C@H](Cc3ccc(O)cc3)NC(=O)[C@H](Cc3ccc(-c4ccccc4)cc3)NC(=O)[C@H](Cc3ccc(O)cc3)NC2=O)c1 [Compound 2693] ({CH2CO}-[Dap]Y(Carboxymethyl)D[Phe(3-Me)]Y[Bip]Y[Orn][dL][Dab][Cha]V[Orn]C[Aun]-OH; thioether N-14) | 13 nM |
| Cc1cccc(C[C@@H]2NC(=O)[C@H](CC(=O)O)NC(=O)[C@H](Cc3ccc(OCC(=O)O)cc3)NC(=O)[C@H](CN)NC(=O)CSC[C@@H](C(=O)NCCCCCCCCCCC(=O)O)NC(=O)[C@H](CCCN)NC(=O)[C@H](C(C)C)NC(=O)[C@H](CC3CCCCC3)NC(=O)[C@H](CCN)NC(=O)[C@@H](CC(C)C)NC(=O)[C@H](CCCN)NC(=O)[C@H](Cc3ccc(O)cc3)NC(=O)[C@H](Cc3ccc(-c4ccccc4)cc3)NC(=O)[C@H](C(C)C)NC2=O)c1 [Compound 2694] ({CH2CO}-[Dap]Y(Carboxymethyl)D[Phe(3-Me)]V[Bip]Y[Orn][dL][Dab][Cha]V[Orn]C[Aun]-OH; thioether N-14) | 9.9 nM |
| Cc1cccc(C[C@@H]2NC(=O)[C@H](CC(=O)O)NC(=O)[C@H](Cc3ccc(O)cc3)NC(=O)[C@H](CC(N)=O)NC(=O)CSC[C@@H](C(=O)N[C@@H](CCN)C(=O)NCCOCCOCC(=O)NCCCCCCCCCCC(=O)O)NC(=O)[C@H](CCCN)NC(=O)[C@H](C(C)C)NC(=O)[C@H](CC3CCCCC3)NC(=O)[C@H](CCN)NC(=O)[C@@H](CC(C)C)NC(=O)[C@H](CCCN)NC(=O)[C@H](Cc3ccc(O)cc3)NC(=O)[C@H](Cc3ccc(-c4ccccc4)cc3)NC(=O)[C@H](C(C)C)NC2=O)c1 [Compound 2695] ({CH2CO}-NYD[Phe(3-Me)]V[Bip]Y[Orn][dL][Dab][Cha]V[Orn]C[Dab][AEEA][Aun]-OH; thioether N-14) | 5.1 nM |
| Cc1cccc(C[C@@H]2NC(=O)[C@H](CC(=O)O)NC(=O)[C@H](Cc3ccc(O)cc3)NC(=O)[C@H](CC(N)=O)NC(=O)CSC[C@@H](C(=O)N[C@@H](CCN)C(=O)NCCCCCCCCCCC(=O)O)NC(=O)[C@H](CCCN)NC(=O)[C@H](C(C)C)NC(=O)[C@H](CC3CCCCC3)NC(=O)[C@H](CCN)NC(=O)[C@@H](CC(C)C)NC(=O)[C@H](CCCN)NC(=O)[C@H](Cc3ccc(O)cc3)NC(=O)[C@H](Cc3ccc(-c4ccccc4)cc3)NC(=O)[C@H](C(C)C)NC2=O)c1 [Compound 2696] ({CH2CO}-NYD[Phe(3-Me)]V[Bip]Y[Orn][dL][Dab][Cha]V[Orn]C[Dab][Aun]-OH; thioether N-14) | 19.1 nM |
| Cc1cccc(C[C@@H]2NC(=O)[C@H](CC(=O)O)NC(=O)[C@H](Cc3ccc(OCC(=O)O)cc3)NC(=O)[C@H](CC(N)=O)NC(=O)CSC[C@@H](C(=O)N[C@@H](CCN)C(=O)NCCOCCOCC(=O)NCCCCCCCCCCC(=O)O)NC(=O)[C@H](CCCN)NC(=O)[C@H](C(C)C)NC(=O)[C@H](CC3CCCCC3)NC(=O)[C@H](CCN)NC(=O)[C@@H](CC(C)C)NC(=O)[C@H](CCCN)NC(=O)[C@H](Cc3ccc(O)cc3)NC(=O)[C@H](Cc3ccc(-c4ccccc4)cc3)NC(=O)[C@H](C(C)C)NC2=O)c1 [Compound 2697] ({CH2CO}-NY(Carboxymethyl)D[Phe(3-Me)]V[Bip]Y[Orn][dL][Dab][Cha]V[Orn]C[Dab][AEEA][Aun]-OH; thioether N-14) | 4.9 nM |
| Cc1cccc(C[C@@H]2NC(=O)[C@H](CC(=O)O)NC(=O)[C@H](Cc3ccc(OCC(=O)O)cc3)NC(=O)[C@H](CC(N)=O)NC(=O)CSC[C@@H](C(=O)N[C@@H](CCN)C(=O)NCCCCCCCCCCC(=O)O)NC(=O)[C@H](CCCN)NC(=O)[C@H](C(C)C)NC(=O)[C@H](CC3CCCCC3)NC(=O)[C@H](CCN)NC(=O)[C@@H](CC(C)C)NC(=O)[C@H](CCCN)NC(=O)[C@H](Cc3ccc(O)cc3)NC(=O)[C@H](Cc3ccc(-c4ccccc4)cc3)NC(=O)[C@H](C(C)C)NC2=O)c1 [Compound 2698] ({CH2CO}-NY(Carboxymethyl)D[Phe(3-Me)]V[Bip]Y[Orn][dL][Dab][Cha]V[Orn]C[Dab][Aun]-OH; thioether N-14) | 11 nM |
| Cc1cccc(C[C@@H]2NC(=O)[C@H](CC(=O)O)NC(=O)[C@H](Cc3cccnc3)NC(=O)[C@H](CC(N)=O)NC(=O)CSC[C@@H](C(=O)N[C@@H](CCN)C(=O)NCCCCCCCCCCC(=O)O)NC(=O)[C@H](CCCN)NC(=O)[C@H](C(C)C)NC(=O)[C@H](CC3CCCCC3)NC(=O)[C@H](CCN)NC(=O)[C@@H](CC(C)C)NC(=O)[C@H](CCCN)NC(=O)[C@H](Cc3ccc(O)cc3)NC(=O)[C@H](Cc3ccc(-c4ccccc4)cc3)NC(=O)[C@H](C(C)C)NC2=O)c1 [Compound 2700] ({CH2CO}-N[3Pal]D[Phe(3-Me)]V[Bip]Y[Orn][dL][Dab][Cha]V[Orn]C[Dab][Aun]-OH; thioether N-14) | 17.9 nM |
| CC(C)C[C@H]1NC(=O)[C@H](CCCN)NC(=O)[C@H](Cc2ccc(O)cc2)NC(=O)[C@H](Cc2ccc(-c3ccccc3)cc2)NC(=O)[C@H](C(C)C)NC(=O)[C@H](Cc2c[nH]c3ccccc23)NC(=O)[C@H](CC(=O)O)NC(=O)[C@H](Cc2ccc(OCC(=O)O)cc2)NC(=O)[C@H](Cc2ccncc2)NC(=O)CSC[C@@H](C(=O)N[C@@H](CCN)C(=O)NCCOCCOCC(=O)NCCCCCCCCCCC(=O)O)NC(=O)[C@H](CCCN)NC(=O)[C@H](C(C)C)NC(=O)[C@H](CC2CCCCC2)NC(=O)[C@H](CCN)NC1=O [Compound 2701] ({CH2CO}-[4Pal]Y(Carboxymethyl)DWV[Bip]Y[Orn][dL][Dab][Cha]V[Orn]C[Dab][AEEA][Aun]-OH; thioether N-14) | 6.7 nM |
| CC(C)C[C@H]1NC(=O)[C@H](CCCN)NC(=O)[C@H](Cc2ccc(O)cc2)NC(=O)[C@H](Cc2ccc(-c3ccccc3)cc2)NC(=O)[C@H](C(C)C)NC(=O)[C@H](Cc2c[nH]c3ccccc23)NC(=O)[C@H](CC(=O)O)NC(=O)[C@H](Cc2ccc(OCC(=O)O)cc2)NC(=O)[C@H](Cc2ccncc2)NC(=O)CSC[C@@H](C(=O)N[C@@H](CCN)C(=O)NCCCCCCCCCCC(=O)O)NC(=O)[C@H](CCCN)NC(=O)[C@H](C(C)C)NC(=O)[C@H](CC2CCCCC2)NC(=O)[C@H](CCN)NC1=O [Compound 2702] ({CH2CO}-[4Pal]Y(Carboxymethyl)DWV[Bip]Y[Orn][dL][Dab][Cha]V[Orn]C[Dab][Aun]-OH; thioether N-14) | 25.7 nM |
| CC(C)C[C@H]1NC(=O)[C@H](CCCN)NC(=O)[C@H](Cc2ccc(O)cc2)NC(=O)[C@H](Cc2ccc(-c3ccccc3)cc2)NC(=O)[C@H](C(C)C)NC(=O)[C@H](Cc2c[nH]c3ccccc23)NC(=O)[C@H](CC(=O)O)NC(=O)[C@H](Cc2ccc(O)cc2)NC(=O)[C@H](Cc2ccncc2)NC(=O)CSC[C@@H](C(=O)N[C@@H](CCN)C(=O)NCCOCCOCC(=O)NCCCCCCCCCCC(=O)O)NC(=O)[C@H](CCCN)NC(=O)[C@H](C(C)C)NC(=O)[C@H](CC2CCCCC2)NC(=O)[C@H](CCN)NC1=O [Compound 2703] ({CH2CO}-[4Pal]YDWV[Bip]Y[Orn][dL][Dab][Cha]V[Orn]C[Dab][AEEA][Aun]-OH; thioether N-14) | 19.3 nM |
| CC(C)C[C@H]1NC(=O)[C@H](CCCN)NC(=O)[C@H](Cc2ccc(O)cc2)NC(=O)[C@H](Cc2ccc(-c3ccccc3)cc2)NC(=O)[C@H](C(C)C)NC(=O)[C@H](Cc2c[nH]c3ccccc23)NC(=O)[C@H](CC(=O)O)NC(=O)[C@H](Cc2ccc(O)cc2)NC(=O)[C@H](Cc2ccncc2)NC(=O)CSC[C@@H](C(=O)N[C@@H](CCN)C(=O)NCCCCCCCCCCC(=O)O)NC(=O)[C@H](CCCN)NC(=O)[C@H](C(C)C)NC(=O)[C@H](CC2CCCCC2)NC(=O)[C@H](CCN)NC1=O [Compound 2704] ({CH2CO}-[4Pal]YDWV[Bip]Y[Orn][dL][Dab][Cha]V[Orn]C[Dab][Aun]-OH; thioether N-14) | 26.7 nM |
| Cc1cccc(C[C@@H]2NC(=O)[C@H](CC(=O)O)NC(=O)[C@H](Cc3ccc(OCC(=O)O)cc3)NC(=O)[C@H](Cc3ccncc3)NC(=O)CSC[C@@H](C(=O)N[C@@H](CCN)C(=O)NCCOCCOCC(=O)NCCCCCCCCCCC(=O)O)NC(=O)[C@H](CCCN)NC(=O)[C@H](C(C)C)NC(=O)[C@H](CC3CCCCC3)NC(=O)[C@H](CCN)NC(=O)[C@@H](CC(C)C)NC(=O)[C@H](CCCN)NC(=O)[C@H](Cc3ccc(O)cc3)NC(=O)[C@H](Cc3ccc(-c4ccccc4)cc3)NC(=O)[C@H](C(C)C)NC2=O)c1 [Compound 2705] ({CH2CO}-[4Pal]Y(Carboxymethyl)D[Phe(3-Me)]V[Bip]Y[Orn][dL][Dab][Cha]V[Orn]C[Dab][AEEA][Aun]-OH; thioether N-14) | 8.3 nM |
| Cc1cccc(C[C@@H]2NC(=O)[C@H](CC(=O)O)NC(=O)[C@H](Cc3ccc(OCC(=O)O)cc3)NC(=O)[C@H](Cc3ccncc3)NC(=O)CSC[C@@H](C(=O)N[C@@H](CCN)C(=O)NCCCCCCCCCCC(=O)O)NC(=O)[C@H](CCCN)NC(=O)[C@H](C(C)C)NC(=O)[C@H](CC3CCCCC3)NC(=O)[C@H](CCN)NC(=O)[C@@H](CC(C)C)NC(=O)[C@H](CCCN)NC(=O)[C@H](Cc3ccc(O)cc3)NC(=O)[C@H](Cc3ccc(-c4ccccc4)cc3)NC(=O)[C@H](C(C)C)NC2=O)c1 [Compound 2706] ({CH2CO}-[4Pal]Y(Carboxymethyl)D[Phe(3-Me)]V[Bip]Y[Orn][dL][Dab][Cha]V[Orn]C[Dab][Aun]-OH; thioether N-14) | 18.4 nM |
